{"source": "patent US7842324B2", "about": "(Senomyx, Inc., priority 2005, dated 2010)", "key": {"tasters [1]": {"system": "tasters", "test": "Reduced sugar soda syrup (strawberry soda) sensory evaluation", "assay_type": "in vivo, human", "conditions": "scale 1 to 10", "description": "1000.00 g of the ⅔ sugared syrup comprising compound 23 was formulated in the following manner. Compound 23 was diluted with maltodextrin (1:100) to make a sweetener concentrate composition for addition to the soda syrup formulation. An alternative method is to make a solution of amide compound in propylene glycol that can be added directly into the liquid soda syrup formulation. A 100 g batch of dry sweetener concentrate composition was produced by weighing 1.000 g of the enhancer and 99.0000 g of 10 D.E. maltodextrin. 50 g of the maltodextrin was placed on the bottom of a clean and dried mortar and the 1.0000 g of amide compound was added and slowly mixed into the maltodextrin. In a planetary mixer with a wire whip attachment (KITCHEN AIDE™ Mixer), the rest of the maltodextrin was added to the mixing bowl, and the contents of the mortar was placed into the mixer and the mixer was turned on to a slow speed (setting 3). A rubber spatula was used to remove the contents of the mortar and the contents were allowed to mix for an additional 10 minutes. A rubber spatula was used to scrap the walls and bottom of the bowl. The mixture was blended on low for another 15 minutes. The […] sweetener concentrate composition was stored in an air tight amber glass container. […]"}, "tasters [2]": {"system": "tasters", "test": "Reduced sugar frosted breakfast cereal sensory evaluation", "assay_type": "in vivo, human", "conditions": "for Avgage Sweet Intensity Score: scale 1 to 10", "description": "A 100 gram sample of a solid sweetener concentrate composition was prepared from 1.000 g of compound 23 and 99.000 g of 10 D.E. maltodextrin. “DE” i.e. “[…]” is a measure of the degree of depolymerization of the corn starches used to manufacture maltodextrins. Fifty grams of the maltodextrin was placed on the bottom of a clean and dried mortar and the 1.000 gr of compound 23 was added to the maltodextrin and slowly ground and mixed into the maltodextrin. The remaining 50 grams of maltodextrin was added to a planetary mixer with a wire whip attachment (KITCHEN AIDE™ Mixer), then the contents of the mortar were placed into the mixer and the mixer was turned on to a slow speed (setting 3), and allowed to mix for 10 minutes. A rubber spatula was used to scrap the walls and bottom of the bowl, then the mixture was blended on low for another 15 minutes. The 100× diluted solid sweetener concentrate composition was stored in an air tight amber glass container. The contents were mixed in the glass container before taking out aliquots of the dry diluted sweet enhancer.\nUsing the KITCHEN AIDE™ Mixer with the wire whip attachment, the granulated sugar, powdered sugar, gum arabic, dextrin, and the 1:100 diluted sweetener concentrate composition were mixed at speed 3. Water and the HFCS were placed into a 1000 mL stainless steel cylinder and mixed using a LIGHTNIN™ Mixer at 500 to 650 rpms using a 2.5 inch (6.35 cm) impeller with three straight blades until the HFCS was dissolved (5 minutes). A vortex was created by positioning the impeller blades at a 30 to 45° angle. The dry/sugar/gum dry blend was added to the vortex very slowly and allowed to mix until the sugar dissolved and the gum rehydrated. An additional 10 minute mixing time was allowed after the last of the dry blend was added, to form the frosting. […]\nFrosted corn flake cereal samples were evaluated using a rank rating design by tasters. […]"}}, "data": [{"molecule": "CC(C)CNC(=O)C(C)(C)c1ccc(-c2cncc(C#N)c2)cc1", "note": "[Compound 23, 2-(4-(5-cyanopyridin-3-yl)phenyl)-N-isobutyl-2-methylpropanamide]", "values": [{"measurement": "Average Sweet Intensity Score", "setting": "tasters [1]; ⅔ sugared with HFCS strawberry soda + 1.0 ppm", "result": 6.429}, {"measurement": "Average Sweet Intensity Score", "setting": "tasters [1]; ⅔ sugared with HFCS strawberry soda + 1.3 ppm", "result": 7.214}, {"measurement": "sweetness compared with fully sugar frosted cornflake control", "setting": "tasters [2]; 9.6 ppm in frosting", "result": "almost as much sweetness as the fully sugar frosted cornflake control"}, {"measurement": "Avgage Sweet Intensity Score", "setting": "tasters [2]; ⅔ sugared frosted corn flakes + 6.6 ppm", "result": 7.5}, {"measurement": "Avgage Sweet Intensity Score", "setting": "tasters [2]; ⅔ sugared frosted corn flakes + 9.6 ppm", "result": 7.81}]}]}
